Assay [1] concerns surface expressed viral antigens in FIPV infected monocytes. In words: Internalization inhibition assay of surface expressed viral antigens (antigen-antibody complexes). The format is cell-based, feline. The note with it: 30 min pre-incubation, 30 min with antibodies, each inhibitor at its working concentration.
A further assay concerns feline monocytes. The assay is described as follows: Internalization assay of control ligands (beads, transferrin or albumin) in monocytes. Type of assay: cell-based. Particulars: 50 μg/ml genistein.

`O=c1c(-c2ccc(O)cc2)coc2cc(O)cc(O)c12` [genistein]: in assay [1], the “internalization of viral antigens” value was 81±4 % of untreated control. Moreover, in the assay with feline monocytes, the “internalization of the control ligand albumin” value is recorded as 3±5 % of the untreated control.

(Values after patent US8293464B2, “Methods for reducing the internalization of viruses and identification of compounds effective thereof” (Universiteit Gent, priority 2008, dated 2012).)
